For this experiment, the target named is T1, rat histamine H3 receptors (Rattus norvegicus, UniProt Q9QYN8).
T1 construct: Frozen rat frontal brain or frozen human post-mortem frontal brain is homogenized; from tissue; host or cells: rat frontal brain membranes
T1 sequence (Q9QYN8 whole entry): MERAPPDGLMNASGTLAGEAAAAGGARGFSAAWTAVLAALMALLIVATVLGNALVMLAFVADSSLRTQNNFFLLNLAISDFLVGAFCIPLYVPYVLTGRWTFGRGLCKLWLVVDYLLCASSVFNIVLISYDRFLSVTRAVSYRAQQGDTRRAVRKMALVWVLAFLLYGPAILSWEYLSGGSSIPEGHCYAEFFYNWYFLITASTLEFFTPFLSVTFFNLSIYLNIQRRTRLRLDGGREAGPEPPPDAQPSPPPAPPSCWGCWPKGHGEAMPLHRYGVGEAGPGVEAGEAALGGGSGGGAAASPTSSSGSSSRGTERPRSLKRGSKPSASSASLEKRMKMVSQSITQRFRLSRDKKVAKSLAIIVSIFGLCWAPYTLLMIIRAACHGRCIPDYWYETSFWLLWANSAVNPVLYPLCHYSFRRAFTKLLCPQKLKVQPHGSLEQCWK
In words: Rat H3 binding (3H-N-methylhistamine displacement, rat frontal brain membranes). The following applies: radioligand 1 nM 3H-N-methylhistamine, 1 hour incubation. The protocol: The in vitro affinity of the compounds in the present invention at the rat or human histamine H3 receptors can be determined according to the following procedure. Frozen rat frontal brain or frozen human post-mortem frontal brain is homogenized in 20 volumes of cold 50 mM Tris HCl containing 2 mM MgCl2 (pH to 7.4 at 4 degrees C.). The homogenate is then centrifuged at 45,000 G for 10 minutes. The supernatant is decanted and the membrane pellet re-suspended by Polytron in cold 50 mM Tris HCl containing 2 mM MgCl2 (pH to 7.4 at 4 degrees C.) and centrifuged again. The final pellet is re-suspended in 50 mM Tris HCl containing 2 mM MgCl2 (pH to 7.4 at 25 degrees C.) at a concentration of 12 mg/mL. Dilutions of compounds are made in 10% DMSO/50 mM Tris buffer (pH 7.4) (at 10×final concentration, so that the final DMSO concentration is 1%). Incubations are initiated by the addition of membranes (200 microliters) to 96 well V-bottom polypropylene plates containing 25 microliters of drug dilutions and 25 microliters of radioligand (1 nM final concentration ^3H-N-methylhistamine). After a 1 hour incubation, assay samples are rapidly filtered through Whatman GF/B filters and rinsed with ice-cold 50 mM Tris buffer (pH 7.4) using a Skatron cell harvester. Radioactivity is quantified using a BetaPlate scintillation counter.
The term Ki denotes a measure of affinity in units of concentration, obtained from inhibition or displacement. A low value points to higher affinity. Consider `CC(=O)Nc1cccc(-c2ccc(CN3CC[C@@H](N(C)C)C3)cc2)c1` [Example 45, (R)-N-[4′-(3-Dimethylamino-pyrrolidin-1-ylmethyl)-biphenyl-3-yl]-acetamide], for which the Ki was determined as 75 nM. In other words, the double-digit nanomolar range.

Consider `CC(=O)Nc1cccc(-c2ccc(CN3CC[C@H](N(C)C)C3)cc2)c1` [Example 44, (S)-N-[4′-(3-Dimethylamino-pyrrolidin-1-ylmethyl)-biphenyl-3-yl]-acetamide], for which affinity was put at a Ki of 139 nM. Next, `CN(C)[C@@H]1CCN(Cc2ccc(-c3ccc(S(C)(=O)=O)cc3)cc2)C1` [Example 43, (R)-[1-(4′-Methanesulfonyl-biphenyl-4-ylmethyl)-pyrrolidin-3-yl]-dimethylamine]: 72 nM. `CN(C)[C@@H]1CCN(Cc2ccc(C3CCNCC3)cc2)C1` [Example 46, (R)-[1-(4-piperidin-4-ylbenzyl)-pyrrolidin-3-yl]-dimethylamine] displayed a Ki of 136 nM.

Compound `CN(C)[C@H]1CCN(Cc2ccc(C3CCNCC3)cc2)C1` [Example 47] registered a Ki of 33 nM.

Compound `CN(C)[C@H]1CCN(Cc2ccc(-c3ccc(S(C)(=O)=O)cc3)cc2)C1` [Example 42, (S)-[1-(4′-Methanesulfonyl-biphenyl-4-ylmethyl)-pyrrolidin-3-yl]-dimethylamine] yielded a Ki of 55 nM.

Source of the values: patent publication US20060014733A1, “Histamine-3 agonists and antagonists” (Pfizer Inc, priority 2004, published 2006).
